Experimental data as given in patent US20060135569A1, “Use of benzisoselenazolone compounds against ischemic myocardial damage” (priority 2002, published 2006).
Marks after values point to notes of the source that are not given here.

Tests used:
[1] = system: isolated rat hearts subjected to ischemia-reperfusion (I/R); test: Isolated heart subjected to ischemia/reperfusion injury (arrhythmia)
Description: Based on the pre-electrophysiological cell model screening, we have compared the inhibition ratios of the outward current by reverse-transportation of Na^+/Ca^2+ exchange, and further in vitro tests on isolated rat hearts subjected to ischemia-reperfusion (I/R) were conducted. Prolongation of ventricular arrhythmic, incidence rate of ventricular extrasystole, ventricular tachycardia/ventricular fibrillation (VT/VF) were recorded to evaluate the protective actions of drugs on myocardial injury.
On the basis of above screening results obtained from electrophysiological studies, and the result from comparative study on the research of the inhibitory effect of compounds on reverse mode Na^+/Ca^2+ exchange process, 7 effective compounds were subjected to in vitro study. Among which, IMM-313, IMM-004 and IMM-132 have structures containing chlorine; IMM-127, IMM-128 and IMM-129 have structures containing fluorine; and IMM-065 has a structure containing OH. The experiment performed in the isolated heart subjected to ischemia/reprefusion insult. Prolongation of ventricular arrhythmic, incidence of ventricular extrasystole, ventricular tachycardia/ventricular fibrillation (VT/VF) were recorded in order to evaluate the protective actions of drugs on myocardial injury.

[2] = system: arrhythmia caused by ischemia/reperfusion insults in anaesthetic rats; test: Ischemia/reperfusion arrhythmia in anaesthetic rats, intravenous injection; format: in vivo, rat; conditions: 3 mg/Kg intravenous (femoral vein), rats
Text: (1) Protective Effects of the Tested Compounds on Myocardial Insults in Rats after Intravenously Injection
Arrhythmic potency induced by myocardial insults was used to assess the potential protective effect of the compounds.

[3] = system: TA100; test: Ames test, strain TA100; format: cell-based
Description: (§1) To assess the mutagenic effects of 5 compounds (IMM-004; IMM-065; IMM-127; IMM-128; IMM-313), the Ames test was performed in 4 strains (TA97; TA98; TA100; TA102). The experiment was conducted with compounds at 4 concentration levels (0.5, 5, 50 and 500 μg/dish). […]

[4] = system: TA98; test: Ames test, strain TA98; format: cell-based
Description: as §1

[5] = system: TA97; test: Ames test, strain TA97; format: cell-based
Description: as §1

[6] = system: TA97; TA98; TA100; TA102; test: Ames (mutagenesis) test, overall result in 4 strains; format: cell-based; conditions: 0.5, 5, 50 and 500 μg/dish
Description: as §1

[7] = system: TA102; test: Ames test, strain TA102; format: cell-based
Description: as §1

[8] = molecular target: T1, Na^+/Ca^2+ exchanger (Cavia porcellus, UniProt P48766); test: Na^+/Ca^2+ exchange current (INa—Ca), whole-cell patch clamp, intracellular Na^+ overload cell model; format: cell-based, guinea pig
T1 construct: endogenous in cells; host or cells: freshly isolated guinea pig ventricular myocytes
Text: 1. Establishment of Assaying Method for Biphasical Current Detection in Na^+/Ca^2+ Exchange System
Since the reverse mode of Na^+/Ca^2+ exchange process is one of the main mechanisms involving in ischemia/reperfusion insult, it is of great importance to establish cell model represented reverse mode Na^+/Ca^2+ exchange process for the development of drugs against ischemic injury. Therefore, we successfully established cell model of reverse mode Na^+/Ca^2+ exchange system by intracellular Na^+ dialysis technique, and recorded Na^+/Ca^2+ exchange currents by patch clamp experiment.
Internal solution contained certain concentration of NaCl was filled to the microcatheter, and ion exchange process between the cellular and internal solutions was conducted after whole cell currents were recorded by patch clamp. Na^+ contained in the internal solution was dialyzed into the cell; result in the high intracellular Na^+ concentration. After that, the cell was champed at a holding potential of −40 mV, then depolarized to +60 mV and followed by a conversely declining ramp stimuli at a speed of 80 mV·s^−1 and 2 s conditioning pulse, then repolarized to −100 mV with a frequency of 0.05 Hz. Under the stimulation protocol, current from outward to the inward direction was recorded by perfusing modified biphasical Tyrode solution (in which the outward and inward currents can be recorded simultaneously) with the addition of 1 mmol·L^−1 of BaCl2 and 2 mmol·L^−1 of CsCl to block K^+ channels, 1 μmol·L^−1 of verapamil to block L-type Ca^2+ channels, and 20 μmol·L^−1 of ouabain to block Na^+/K^+ ATPase, and 20 mmol·L^−1 of TEA to block potassium channels. The recorded inward currents were presented in a linear manner owing to the blockade of other time-dependent currents. With the increase of intracellular Na^+ level and prolongation of time, the reverse mode of Na^+/Ca^2+ exchange process was activated. […] Under such experimental conditioning, the maximum reverse mode current was recorded 3 min after cell crushed. No significant “run-down” was observed within the record period of 8 minutes. The inward and outward current were inhibited by 5 mmol·L^−1 of Ni^2+ treatment, and the experiment result in two current-voltage curves in the absence or presence of Ni^2+. The Ni^2+ sensitive current, also called electrophysiological Na^+/Ca^2+ exchange current (INa·Ca), was the minus result of two current-voltage curves. The reverse mode potential of INa—Ca was about −20 mV
Male guinea pigs weighting 250˜280 g provided by the Animal Center of the Chinese Academy of Medical Sciences were hammered and sacrificed. The chest was opened and the heart was removed quickly. Fatty tissue and pericardium were removed in a Ca^2+-free solution at 4° C., and heart was sequentially mounted on a Langendorff apparatus. First, the heart was perfused conversely via the aorta for 6 min with Ca^2+-free solution in order to wash out residual blood, then the heart expands and the color of it turns to pink. Then the heart was perfused with Ca^2+-free solution containing 0.1 mg/ml of pronase E, 0.5 mg/ml defatted bovine serum albumin (BSA) and 150 μM Ca^2+ for 2˜3 min, until the heart expanded and became soft. The atrium was removed, and the digested heart was minced with scissors, stirred in a beaker at 37° C. for 5˜10 min. The supernatant was diluted with Ca^2+-free solution containing 0.5 mg/ml BSA and 1.8 mM Ca^2+. The supernatant was placed at room temperature (20˜24° C.) for 1 hr and then subjected to the experiment. During the whole perfusion period, pressure was kept at 70 cmH2O and the temperature of solution was kept at 37° C. with continuously gassed with 95% O2 and 5% CO2.
Rod-shaped cells with clear striations and intact membrane were used. […]

[9] = 10^−6 M, isolated heart ischemia/reperfusion
[10] = Example 1 table, myocardial cell
[11] = screening of 22 candidate compounds

C/C(=N\O)c1ccc(-n2[se]c3ccccc3c2=O)cc1 [IMM-065]
protective effects on myocardial insults ([1]; 10^−6M, isolated heart): significant protective effects
AAT: arrhythmic occurrence time, Time [1, 9]: 13.09 ± 3.76 min
VF (ventricular fibrillation) Incidence rate (%) [1, 9]: 50%
VPS (ventricular premature beats) Incidence rate (%) [1, 9]: 30%
VT (ventricular tachycardia) Incidence rate (%) [1, 9]: 70%
incidence and duration of VT, VF, VE / ventricular arrhythmic [2]: no significant effect
TA100 +S9 ([3]; 0.5 μg/dish): 176.67 ± 24.57
TA100 −S9 ([3]; 0.5 μg/dish): 153.67 ± 13.47
TA100 +S9 ([3]; 5 μg/dish): 167.00 ± 58.86
TA100 −S9 ([3]; 5 μg/dish): 60.33 ± 19.91
TA100 +S9 ([3]; 50 μg/dish): 180.33 ± 29.83
TA100 −S9 ([3]; 50 μg/dish): 108.67 ± 6.79
TA100 +S9 ([3]; 500 μg/dish): 0
TA100 −S9 ([3]; 500 μg/dish): 62.33 ± 20.53
TA98 +S9 ([4]; 0.5 μg/dish): 56.50 ± 4.50
TA98 −S9 ([4]; 0.5 μg/dish): 52.00 ± 3.74
TA98 +S9 ([4]; 5 μg/dish): 61.67 ± 11.15
TA98 −S9 ([4]; 5 μg/dish): 42.00 ± 10.80
TA98 +S9 ([4]; 50 μg/dish): 42.00 ± 5.72
TA98 −S9 ([4]; 50 μg/dish): 45.33 ± 5.44
TA98 +S9 ([4]; 500 μg/dish): 168.00 ± 32.00
TA98 −S9 ([4]; 500 μg/dish): 54.00 ± 12.83
TA97 +S9 ([5]; 0.5 μg/dish): 249.33 ± 35.83
TA97 −S9 ([5]; 0.5 μg/dish): 62.67 ± 4.49
TA97 +S9 ([5]; 5 μg/dish): 76.00 ± 15.29
TA97 −S9 ([5]; 5 μg/dish): 73.67 ± 6.64
TA97 +S9 ([5]; 50 μg/dish): 82.67 ± 12.92
TA97 −S9 ([5]; 50 μg/dish): 69.67 ± 3.77
TA97 +S9 ([5]; 500 μg/dish): 0
TA97 −S9 ([5]; 500 μg/dish): 59.67 ± 0.94
mutagenic effect (Ames test) [6]: No evidence for a mutagenic effect
TA102 +S9 ([7]; 0.5 μg/dish): 270.00 ± 10.00
TA102 −S9 ([7]; 0.5 μg/dish): 244.00 ± 12.33
TA102 +S9 ([7]; 5 μg/dish): 308.00 ± 31.16
TA102 −S9 ([7]; 5 μg/dish): 246.00 ± 24.00
TA102 +S9 ([7]; 50 μg/dish): 339.33 ± 48.99
TA102 −S9 ([7]; 50 μg/dish): 217.33 ± 15.43
TA102 +S9 ([7]; 500 μg/dish): 287.33 ± 41.89
TA102 −S9 ([7]; 500 μg/dish): 215.00 ± 75.59
Inhibitory rate of inward INa—Ca (%) [8, 10]: 43%
Inhibitory rate of outward INa—Ca (%) [8, 10]: 55%
Inhibitory rate of inward INa—Ca (%) [8, 11]: 43%
Inhibitory rate of outward INa—Ca (%) [8, 11]: 55* %
